What is called inhibition is the change of the read-out against control, counted positive when it falls. As a reminder, the IC50 is the point on the concentration scale where inhibition reaches its midpoint.

SMILES strings stand for the structures.

Experimental findings from ChEMBL document CHEMBL1154188, “Kinase inhibitor data modeling and de novo inhibitor design with fragment approaches” (J Med Chem, 2009) are described below.

Experiment [1] deals with Rho-associated protein kinase 2 (Homo sapiens) (UniProt O75116). Nature of the experiment: Inhibition of recombinant ROCK2 at 20 uM by [gamma-33P]ATP based assay.
Chain of Rho-associated protein kinase 2 (Homo sapiens) (O75116 whole entry, looked up): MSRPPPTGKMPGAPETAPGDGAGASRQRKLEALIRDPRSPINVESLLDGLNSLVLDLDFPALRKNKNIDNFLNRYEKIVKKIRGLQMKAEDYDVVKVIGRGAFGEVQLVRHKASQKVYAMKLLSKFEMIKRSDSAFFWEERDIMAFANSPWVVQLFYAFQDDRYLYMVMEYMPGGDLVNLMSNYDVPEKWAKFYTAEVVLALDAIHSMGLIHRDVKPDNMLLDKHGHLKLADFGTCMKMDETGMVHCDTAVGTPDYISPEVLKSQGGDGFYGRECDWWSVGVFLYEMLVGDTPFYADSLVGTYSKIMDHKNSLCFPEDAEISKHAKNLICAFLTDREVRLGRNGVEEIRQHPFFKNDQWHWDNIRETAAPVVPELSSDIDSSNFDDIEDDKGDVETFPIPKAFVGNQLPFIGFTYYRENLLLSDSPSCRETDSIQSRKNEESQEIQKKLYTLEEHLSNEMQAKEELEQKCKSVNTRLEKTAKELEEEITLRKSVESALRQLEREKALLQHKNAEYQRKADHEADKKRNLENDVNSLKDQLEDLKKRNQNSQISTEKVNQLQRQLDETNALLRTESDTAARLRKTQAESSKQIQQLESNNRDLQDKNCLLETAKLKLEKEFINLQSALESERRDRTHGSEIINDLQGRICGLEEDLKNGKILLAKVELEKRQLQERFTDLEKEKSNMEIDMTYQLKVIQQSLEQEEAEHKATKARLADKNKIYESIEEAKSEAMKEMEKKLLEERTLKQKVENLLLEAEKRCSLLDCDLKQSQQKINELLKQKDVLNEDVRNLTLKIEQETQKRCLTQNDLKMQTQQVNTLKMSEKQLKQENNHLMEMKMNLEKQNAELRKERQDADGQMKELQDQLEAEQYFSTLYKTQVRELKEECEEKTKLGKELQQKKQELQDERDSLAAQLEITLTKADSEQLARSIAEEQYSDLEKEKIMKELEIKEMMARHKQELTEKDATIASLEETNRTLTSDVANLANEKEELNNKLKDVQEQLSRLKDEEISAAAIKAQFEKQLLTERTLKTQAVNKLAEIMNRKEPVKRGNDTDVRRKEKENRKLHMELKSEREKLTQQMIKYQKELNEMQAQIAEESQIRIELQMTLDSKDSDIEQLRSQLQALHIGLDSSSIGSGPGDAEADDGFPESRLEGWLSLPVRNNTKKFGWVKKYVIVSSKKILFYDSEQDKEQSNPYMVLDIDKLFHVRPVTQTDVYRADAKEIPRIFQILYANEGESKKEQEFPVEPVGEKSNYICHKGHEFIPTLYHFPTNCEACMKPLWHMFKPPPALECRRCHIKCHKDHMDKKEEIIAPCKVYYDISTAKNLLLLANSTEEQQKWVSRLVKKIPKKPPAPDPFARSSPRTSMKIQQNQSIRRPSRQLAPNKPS
Experiment [2] addresses Ribosomal protein S6 kinase beta-1 (Homo sapiens) (UniProt P23443). Nature of the experiment: Inhibition of recombinant P70S6K at 20 uM by [gamma-33P]ATP based assay.
Experiment [3] addresses T1, Serine/threonine-protein kinase Chk2 (Homo sapiens, UniProt O96017). Nature of the experiment: Inhibition of recombinant CHK2 at 20 uM by [gamma-33P]ATP based assay.
The target of experiment [4] is T2, Hepatocyte growth factor receptor (Homo sapiens, UniProt P08581). Nature of the experiment: Inhibition of recombinant MET by [gamma-33P]ATP based assay.
Experiment [5] addresses T1, Serine/threonine-protein kinase Chk2. Briefly: Inhibition of recombinant CHK2 by [gamma-33P]ATP based assay.
For experiment [6], the target named is Receptor-type tyrosine-protein kinase FLT3 (Homo sapiens) (UniProt P36888). Nature of the experiment: Inhibition of recombinant FLT3 at 20 uM by [gamma-33P]ATP based assay.
Chain of Receptor-type tyrosine-protein kinase FLT3 (Homo sapiens) (P36888 whole entry): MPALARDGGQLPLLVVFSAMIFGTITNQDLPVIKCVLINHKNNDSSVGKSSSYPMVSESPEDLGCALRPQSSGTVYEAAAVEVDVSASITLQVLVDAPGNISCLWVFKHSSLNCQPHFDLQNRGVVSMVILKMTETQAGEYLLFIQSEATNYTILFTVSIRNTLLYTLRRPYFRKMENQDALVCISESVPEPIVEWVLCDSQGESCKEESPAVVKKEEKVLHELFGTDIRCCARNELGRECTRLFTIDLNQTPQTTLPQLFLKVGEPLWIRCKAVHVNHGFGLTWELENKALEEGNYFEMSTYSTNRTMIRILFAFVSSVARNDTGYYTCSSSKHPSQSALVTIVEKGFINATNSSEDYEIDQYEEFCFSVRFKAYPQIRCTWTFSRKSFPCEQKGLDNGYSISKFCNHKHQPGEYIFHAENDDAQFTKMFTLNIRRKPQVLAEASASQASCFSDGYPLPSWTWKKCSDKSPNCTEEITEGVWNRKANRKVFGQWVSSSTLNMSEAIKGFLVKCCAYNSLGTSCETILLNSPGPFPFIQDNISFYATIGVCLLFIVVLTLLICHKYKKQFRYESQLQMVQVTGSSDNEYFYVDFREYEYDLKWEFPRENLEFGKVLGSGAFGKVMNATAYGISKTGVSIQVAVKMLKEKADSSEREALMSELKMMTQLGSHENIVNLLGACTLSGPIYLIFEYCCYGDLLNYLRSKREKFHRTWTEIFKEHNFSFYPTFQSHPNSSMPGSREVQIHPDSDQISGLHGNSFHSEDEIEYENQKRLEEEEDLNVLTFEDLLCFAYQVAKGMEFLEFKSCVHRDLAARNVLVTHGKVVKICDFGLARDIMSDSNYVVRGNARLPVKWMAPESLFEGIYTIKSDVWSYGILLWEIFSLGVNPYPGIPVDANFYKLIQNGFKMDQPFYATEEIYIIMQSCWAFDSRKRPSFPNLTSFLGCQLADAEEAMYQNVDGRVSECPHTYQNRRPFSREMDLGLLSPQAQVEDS
Experiment [7] has as its target Tyrosine-protein kinase ABL1 (Homo sapiens) (UniProt P00519). Briefly: Inhibition of recombinant ABL1 at 20 uM by [gamma-33P]ATP based assay.
In experiment [8] the target is T2, Hepatocyte growth factor receptor. Nature of the experiment: Inhibition of recombinant MET at 20 uM by [gamma-33P]ATP based assay.

Chain of Ribosomal protein S6 kinase beta-1 (Homo sapiens) (P23443 whole entry, looked up): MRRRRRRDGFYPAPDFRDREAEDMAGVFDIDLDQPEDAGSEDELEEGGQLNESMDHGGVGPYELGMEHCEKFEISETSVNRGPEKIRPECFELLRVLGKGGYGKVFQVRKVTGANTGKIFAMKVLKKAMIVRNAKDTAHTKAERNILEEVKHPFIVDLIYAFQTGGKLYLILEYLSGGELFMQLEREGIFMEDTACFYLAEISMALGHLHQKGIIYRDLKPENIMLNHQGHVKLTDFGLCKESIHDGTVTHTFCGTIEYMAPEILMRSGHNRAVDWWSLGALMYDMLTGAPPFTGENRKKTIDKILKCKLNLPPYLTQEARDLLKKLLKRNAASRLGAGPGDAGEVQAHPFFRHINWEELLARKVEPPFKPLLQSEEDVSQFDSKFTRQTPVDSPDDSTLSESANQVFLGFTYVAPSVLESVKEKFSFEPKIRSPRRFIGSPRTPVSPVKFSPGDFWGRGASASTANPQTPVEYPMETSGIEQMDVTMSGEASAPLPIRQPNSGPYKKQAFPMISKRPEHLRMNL
Chain of Tyrosine-protein kinase ABL1 (Homo sapiens) (P00519 whole entry): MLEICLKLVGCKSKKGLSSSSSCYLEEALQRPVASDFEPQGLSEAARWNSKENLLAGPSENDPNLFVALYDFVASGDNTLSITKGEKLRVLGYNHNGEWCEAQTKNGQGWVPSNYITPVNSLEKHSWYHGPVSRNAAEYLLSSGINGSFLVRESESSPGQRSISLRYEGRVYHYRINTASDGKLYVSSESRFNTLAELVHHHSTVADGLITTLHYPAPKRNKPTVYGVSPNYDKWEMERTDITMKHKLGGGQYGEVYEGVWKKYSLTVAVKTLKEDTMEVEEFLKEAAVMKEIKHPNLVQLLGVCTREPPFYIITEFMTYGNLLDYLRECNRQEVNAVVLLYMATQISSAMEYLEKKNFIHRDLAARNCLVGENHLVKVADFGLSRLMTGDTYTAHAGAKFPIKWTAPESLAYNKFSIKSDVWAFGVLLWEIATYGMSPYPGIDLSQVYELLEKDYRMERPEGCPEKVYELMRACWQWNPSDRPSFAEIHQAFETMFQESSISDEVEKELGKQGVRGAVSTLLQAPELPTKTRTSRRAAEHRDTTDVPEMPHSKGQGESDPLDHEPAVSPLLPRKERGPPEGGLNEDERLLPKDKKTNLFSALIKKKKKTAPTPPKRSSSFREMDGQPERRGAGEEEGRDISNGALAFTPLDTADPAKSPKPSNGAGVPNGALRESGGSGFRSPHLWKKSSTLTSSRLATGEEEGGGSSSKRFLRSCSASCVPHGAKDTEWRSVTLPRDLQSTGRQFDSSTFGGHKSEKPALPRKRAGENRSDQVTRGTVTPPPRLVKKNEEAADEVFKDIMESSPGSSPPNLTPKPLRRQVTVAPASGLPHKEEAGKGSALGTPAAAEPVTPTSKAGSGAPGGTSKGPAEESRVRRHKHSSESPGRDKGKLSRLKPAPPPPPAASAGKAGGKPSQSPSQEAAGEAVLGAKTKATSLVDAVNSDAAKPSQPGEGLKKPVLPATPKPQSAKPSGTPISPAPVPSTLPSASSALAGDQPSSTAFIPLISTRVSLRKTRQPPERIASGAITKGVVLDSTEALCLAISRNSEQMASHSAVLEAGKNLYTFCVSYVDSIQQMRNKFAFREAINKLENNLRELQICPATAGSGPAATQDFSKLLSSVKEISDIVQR
T1 sequence (O96017 whole entry): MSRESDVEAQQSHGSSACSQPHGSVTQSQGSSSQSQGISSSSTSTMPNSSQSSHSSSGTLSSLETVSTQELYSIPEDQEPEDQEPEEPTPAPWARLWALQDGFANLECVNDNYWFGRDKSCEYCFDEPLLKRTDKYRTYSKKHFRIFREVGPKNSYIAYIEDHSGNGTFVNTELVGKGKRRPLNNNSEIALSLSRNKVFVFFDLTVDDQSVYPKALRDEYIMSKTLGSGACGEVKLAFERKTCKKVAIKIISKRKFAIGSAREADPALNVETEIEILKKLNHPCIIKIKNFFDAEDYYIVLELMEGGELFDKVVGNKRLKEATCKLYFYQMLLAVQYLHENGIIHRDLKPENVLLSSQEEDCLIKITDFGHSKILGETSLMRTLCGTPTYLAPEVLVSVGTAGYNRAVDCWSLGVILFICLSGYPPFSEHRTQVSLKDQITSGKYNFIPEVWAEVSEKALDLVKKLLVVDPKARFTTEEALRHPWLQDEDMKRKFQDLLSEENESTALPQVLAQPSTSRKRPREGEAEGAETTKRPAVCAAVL

Turning to `CC(Oc1nc(-c2ccc(C(=O)NCC3CCCNC3)cc2)cnc1N)c1c(Cl)cccc1Cl` (stereo unspecified), the inhibition in experiment [1] was determined as 42%; in experiment [2], 45%; in experiment [3], 60%; in experiment [6] it was 61%; in experiment [7], 11%; in experiment [8], 53%. The results for the IC50 in experiment [4] and in experiment [5] were 1210 nM and 1130 nM, respectively.

Take `Nc1ncc(-c2ccc(C(=O)NC3CCNCC3)cc2)nc1Oc1ccc2cc[nH]c2c1`: the inhibition in experiment [1] was 99%; in experiment [2], 98%; in experiment [3], 98%; in experiment [6], 102%; in experiment [7], 85%; in experiment [8], 73%. Also, the IC50 stood at 5520 nM in experiment [4] and 800 nM in experiment [5].

For `Nc1ncc(-c2ccc(C(=O)NCC3CCNCC3)cc2)nc1Oc1ccc2cc[nH]c2c1`, the inhibition in experiment [1] is 98%; in experiment [2] it was 92%; in experiment [3] it was 97%; in experiment [6], 94%; in experiment [7], 94%; in experiment [8], 96%. Besides, the IC50 in experiment [4] was 3330 nM; in experiment [5], 1120 nM.

For the compound `Nc1ncc(-c2ccc(C(=O)NCC3CCNC3)cc2)nc1Oc1ccc2cc[nH]c2c1` (stereo unspecified), the inhibition was determined as 98% in experiment [1]; 89% in experiment [2]; 98% in experiment [3]; 93% in experiment [6]; 87% in experiment [7]; 75% in experiment [8]. Besides, the IC50 in experiment [4] worked out at 3550 nM; in experiment [5], 580 nM.

On to `Nc1ncc(-c2ccc(C(=O)NCC3CCCN3)cc2)nc1Oc1ccc2cc[nH]c2c1` (stereo unspecified), for which the inhibition amounted to 97% in experiment [1]; 86% in experiment [2]; 98% in experiment [3]; 100% in experiment [6]; 87% in experiment [7]; 77% in experiment [8]. The IC50 in experiment [4] was determined as 4270 nM; in experiment [5], 960 nM.

`Nc1ncc(-c2ccc(C(=O)N[C@@H]3CCNC3)cc2)nc1Oc1ccc2cc[nH]c2c1`: the inhibition worked out at 37% in experiment [1]; 100% in experiment [2]; 96% in experiment [3]; 86% in experiment [6]; 84% in experiment [7]; 65% in experiment [8]. The results for the IC50 in experiment [4] and in experiment [5] were 13700 nM and 610 nM, respectively.

Consider `Nc1ncc(-c2ccc(C(=O)NCC3CCCNC3)cc2)nc1Oc1ccc2cc[nH]c2c1` (stereo unspecified), for which the inhibition in experiment [1] was 98%; in experiment [2], 101%; in experiment [3] it was 98%; in experiment [6] it was 99%; in experiment [7], 81%; in experiment [8] it was 65%. The IC50 in experiment [4] came out at 7090 nM; in experiment [5], 890 nM.
